Test: xn = mol fraction of the nth substance listed
Settings: 101 kPa, Liquid; for viscosity: Capillary tube (Ostwald / Ubbelohde) method; for mass density: Vibrating tube method

CCCCCCCC [octane] + CCCO
Settings | mass density [kg/m3] | viscosity [mPa·s]
293.15 K, x1 = 0.0997 | 782.97 | 1.692
293.15 K, x1 = 0.1999 | 766.37 | 1.356
293.15 K, x1 = 0.3 | 752.87 | 1.092
293.15 K, x1 = 0.3997 | 741.8 | 0.934
293.15 K, x1 = 0.4993 | 732.43 | 0.798
293.15 K, x1 = 0.602 | 724.19 | 0.703
293.15 K, x1 = 0.6991 | 717.48 | 0.632
293.15 K, x1 = 0.7994 | 711.55 | 0.587
293.15 K, x1 = 0.9 | 706.48 | 0.556
293.15 K, x1 = 1 | 702.54 | 0.545
298.15 K, x1 = 0.0997 | 778.9 | 1.508
298.15 K, x1 = 0.1999 | 762.25 | 1.216
298.15 K, x1 = 0.3 | 748.72 | 0.991
298.15 K, x1 = 0.3997 | 737.62 | 0.854
298.15 K, x1 = 0.4993 | 728.24 | 0.734
298.15 K, x1 = 0.602 | 719.99 | 0.65
298.15 K, x1 = 0.6991 | 713.3 | 0.589
298.15 K, x1 = 0.7994 | 707.39 | 0.55
298.15 K, x1 = 0.9 | 702.35 | 0.523
298.15 K, x1 = 1 | 698.49 | 0.513
303.15 K, x1 = 0.0997 | 774.8 | 1.352
303.15 K, x1 = 0.1999 | 758.1 | 1.097
303.15 K, x1 = 0.3 | 744.53 | 0.899
303.15 K, x1 = 0.3997 | 733.4 | 0.777
303.15 K, x1 = 0.4993 | 724.01 | 0.675
303.15 K, x1 = 0.602 | 715.77 | 0.603
303.15 K, x1 = 0.6991 | 709.09 | 0.55
303.15 K, x1 = 0.7994 | 703.2 | 0.515
303.15 K, x1 = 0.9 | 698.19 | 0.491
303.15 K, x1 = 1 | 694.44 | 0.485
308.15 K, x1 = 0.0997 | 770.67 | 1.211
308.15 K, x1 = 0.1999 | 753.91 | 0.992
308.15 K, x1 = 0.3 | 740.3 | 0.817
308.15 K, x1 = 0.3997 | 729.15 | 0.712
308.15 K, x1 = 0.4993 | 719.75 | 0.623
308.15 K, x1 = 0.602 | 711.51 | 0.56
308.15 K, x1 = 0.6991 | 704.85 | 0.514
308.15 K, x1 = 0.7994 | 698.98 | 0.484
308.15 K, x1 = 0.9 | 694.02 | 0.463
308.15 K, x1 = 1 | 690.37 | 0.459
313.15 K, x1 = 0.0997 | 766.5 | 1.09
313.15 K, x1 = 0.1999 | 749.69 | 0.898
313.15 K, x1 = 0.3 | 736.04 | 0.745
313.15 K, x1 = 0.3997 | 724.85 | 0.653
313.15 K, x1 = 0.4993 | 715.44 | 0.576
313.15 K, x1 = 0.602 | 707.21 | 0.52
313.15 K, x1 = 0.6991 | 700.57 | 0.481
313.15 K, x1 = 0.7994 | 694.73 | 0.455
313.15 K, x1 = 0.9 | 689.81 | 0.436
313.15 K, x1 = 1 | 686.29 | 0.433
318.15 K, x1 = 0.0997 | 762.28 | 0.984
318.15 K, x1 = 0.1999 | 745.41 | 0.817
318.15 K, x1 = 0.3 | 731.72 | 0.68
318.15 K, x1 = 0.3997 | 720.51 | 0.605
318.15 K, x1 = 0.4993 | 711.09 | 0.534
318.15 K, x1 = 0.602 | 702.87 | 0.485
318.15 K, x1 = 0.6991 | 696.25 | 0.451
318.15 K, x1 = 0.7994 | 690.45 | 0.427
318.15 K, x1 = 0.9 | 685.58 | 0.412
318.15 K, x1 = 1 | 682.19 | 0.412
323.15 K, x1 = 0.0997 | 758.02 | 0.89
323.15 K, x1 = 0.1999 | 741.08 | 0.742
323.15 K, x1 = 0.3 | 727.35 | 0.623
323.15 K, x1 = 0.3997 | 716.12 | 0.554
323.15 K, x1 = 0.4993 | 706.7 | 0.496
323.15 K, x1 = 0.602 | 698.49 | 0.452
323.15 K, x1 = 0.6991 | 691.9 | 0.423
323.15 K, x1 = 0.7994 | 686.13 | 0.403
323.15 K, x1 = 0.9 | 681.32 | 0.389
323.15 K, x1 = 1 | 678.08 | 0.392

Reference: the NIST ThermoML archive (doi:10.1021/je4004806)
